In ChEMBL document CHEMBL1255272, “In vitro activity of AR-709 against Streptococcus pneumoniae” (2008):
Converted amounts (≈) assume the structure as drawn. Values belong to the compound of their own block, whether it stands above or below them.

Legend:
Assay type in all cases: functional
Streptococcus pneumoniae [1] = assay: Antibacterial activity against Streptococcus pneumoniae by microdilution method
Streptococcus pneumoniae [2] = assay: Antibacterial activity against Streptococcus pneumoniae assessed as susceptible isolates by microdilution method
Streptococcus pneumoniae [3] = assay: Antibacterial activity against Streptococcus pneumoniae assessed as resistant isolates by microdilution method
Streptococcus pneumoniae [4] = assay: Antibacterial activity against amoxicillin-clavulanic acid susceptible Streptococcus pneumoniae by microdilution method
Streptococcus pneumoniae [5] = assay: Antibacterial activity against cotrimoxazole resistant Streptococcus pneumoniae by microdilution method
Streptococcus pneumoniae [6] = assay: Antibacterial activity against amoxicillin-clavulanic acid resistant Streptococcus pneumoniae by microdilution method
Streptococcus pneumoniae [7] = assay: Antibacterial activity against cotrimoxazole susceptible Streptococcus pneumoniae by microdilution method
Streptococcus pneumoniae [8] = assay: Antibacterial activity against penicillin intermediate Streptococcus pneumoniae by microdilution method
Streptococcus pneumoniae [9] = assay: Antibacterial activity against azithromycin susceptible Streptococcus pneumoniae by microdilution method
Streptococcus pneumoniae [10] = assay: Antibacterial activity against penicillin resistant Streptococcus pneumoniae by microdilution method
Streptococcus pneumoniae [11] = assay: Antibacterial activity against penicillin susceptible Streptococcus pneumoniae by microdilution method
Streptococcus pneumoniae [12] = assay: Antibacterial activity against multidrug resistant Streptococcus pneumoniae by microdilution method
Streptococcus pneumoniae [13] = assay: Antibacterial activity against azithromycin resistant Streptococcus pneumoniae by microdilution method
Streptococcus pneumoniae [14] = assay: Antibacterial activity against cotrimoxazole intermediate Streptococcus pneumoniae by microdilution method
Streptococcus pneumoniae [15] = assay: Antibacterial activity against Streptococcus pneumoniae ATCC 49619 by microdilution method
Streptococcus pneumoniae [16] = assay: Antibacterial activity against Streptococcus pneumoniae assessed as susceptible isolates by microdilution method in presence of beta lactamase inhibitor clavulanic acid
Streptococcus pneumoniae [17] = assay: Antibacterial activity against Streptococcus pneumoniae assessed as resistant isolates by microdilution method in presence of beta lactamase inhibitor clavulanic acid
Streptococcus pneumoniae [18] = assay: Antibacterial activity against Streptococcus pneumoniae by microdilution method in presence of beta lactamase inhibitor clavulanic acid

Structure (SMILES): COc1c(N2CCNC(C)C2)c(F)cc2c(=O)c(C(=O)O)cn(C3CC3)c12 (stereo not given) [GATIFLOXACIN]
MIC50 (Streptococcus pneumoniae [1]): 0.25 µg/mL (≈ 0.666 µM)
MIC90 (Streptococcus pneumoniae [1]): 0.25 µg/mL (≈ 0.666 µM)
Activity (Streptococcus pneumoniae [2]): 98.7%
Activity (Streptococcus pneumoniae [3]): 0.7%

Structure (SMILES): CC1(C)S[C@@H]2[C@H](NC(=O)Cc3ccccc3)C(=O)N2[C@H]1C(=O)O [PENICILLIN G]
MIC50 (Streptococcus pneumoniae [1]): 0.25 µg/mL (≈ 0.748 µM)
MIC90 (Streptococcus pneumoniae [1]): 2 µg/mL (≈ 5.98 µM)
Activity (Streptococcus pneumoniae [2]): 41.7%
Activity (Streptococcus pneumoniae [3]): 38.4%

Structure (SMILES): CC[C@H]1OC(=O)[C@H](C)[C@@H](O[C@H]2C[C@@](C)(OC)[C@@H](O)[C@H](C)O2)[C@H](C)[C@@H](O[C@@H]2O[C@H](C)C[C@H](N(C)C)[C@H]2O)[C@](C)(O)C[C@@H](C)CN(C)[C@H](C)[C@@H](O)[C@]1(C)O [AZITHROMYCIN]
MIC50 (Streptococcus pneumoniae [1]): 0.12 µg/mL (≈ 0.16 µM)
MIC90 (Streptococcus pneumoniae [1]): > 8 µg/mL
Activity (Streptococcus pneumoniae [2]): 62.3%
Activity (Streptococcus pneumoniae [3]): 37.7%

Structure (SMILES): COc1cc(Cc2cnc(N)nc2N)c2cc(Cc3c(C(=O)N(C)C)[nH]c4ccc(Cl)cc34)oc2c1OC
MIC50 (Streptococcus pneumoniae [4]): ≤ 0.015 µg/mL
MIC90 (Streptococcus pneumoniae [4]): 0.06 µg/mL
MIC50 (Streptococcus pneumoniae [5]): 0.12 µg/mL (≈ 0.224 µM)
MIC90 (Streptococcus pneumoniae [5]): 0.25 µg/mL (≈ 0.467 µM)
MIC50 (Streptococcus pneumoniae [6]): 0.06 µg/mL
MIC90 (Streptococcus pneumoniae [6]): 0.25 µg/mL
MIC50 (Streptococcus pneumoniae [1]): 0.03 µg/mL (≈ 0.0561 µM)
MIC90 (Streptococcus pneumoniae [1]): 0.25 µg/mL (≈ 0.467 µM)
MIC50 (Streptococcus pneumoniae [7]): ≤ 0.015 µg/mL
MIC90 (Streptococcus pneumoniae [7]): 0.03 µg/mL (≈ 0.0561 µM)
MIC50 (Streptococcus pneumoniae [8]): 0.03 µg/mL (≈ 0.0561 µM)
MIC90 (Streptococcus pneumoniae [8]): 0.12 µg/mL (≈ 0.224 µM)
MIC50 (Streptococcus pneumoniae [9]): ≤ 0.015 µg/mL
MIC90 (Streptococcus pneumoniae [9]): 0.12 µg/mL (≈ 0.224 µM)
MIC50 (Streptococcus pneumoniae [10]): 0.06 µg/mL (≈ 0.112 µM)
MIC90 (Streptococcus pneumoniae [10]): 0.25 µg/mL (≈ 0.467 µM)
MIC50 (Streptococcus pneumoniae [11]): ≤ 0.015 µg/mL
MIC90 (Streptococcus pneumoniae [11]): ≤ 0.015 µg/mL
MIC50 (Streptococcus pneumoniae [12]): 0.12 µg/mL (≈ 0.224 µM)
MIC90 (Streptococcus pneumoniae [12]): 0.25 µg/mL (≈ 0.467 µM)
MIC50 (Streptococcus pneumoniae [13]): 0.06 µg/mL (≈ 0.112 µM)
MIC90 (Streptococcus pneumoniae [13]): 0.25 µg/mL (≈ 0.467 µM)
MIC50 (Streptococcus pneumoniae [14]): ≤ 0.015 µg/mL
MIC90 (Streptococcus pneumoniae [14]): 0.06 µg/mL (≈ 0.112 µM)
MIC (Streptococcus pneumoniae [15]): ≤ 0.015 µg/mL

Structure (SMILES): CC[C@H]1OC(=O)[C@H](C)C(=O)[C@H](C)[C@@H](O[C@@H]2O[C@H](C)C[C@H](N(C)C)[C@H]2O)[C@](C)(OC)C[C@@H](C)C(=O)[C@H](C)[C@H]2N(CCCCn3cnc(-c4cccnc4)c3)C(=O)O[C@]12C [TELITHROMYCIN]
MIC90 (Streptococcus pneumoniae [1]): 0.5 µg/mL (≈ 0.616 µM)
Activity (Streptococcus pneumoniae [2]): 98%
Activity (Streptococcus pneumoniae [3]): 0.7%

MIC50 (Streptococcus pneumoniae [1]): 4 µg/mL (≈ 13.8 µM)
MIC90 (Streptococcus pneumoniae [1]): > 32 µg/mL
Structure (SMILES): COc1cc(Cc2cnc(N)nc2N)cc(OC)c1OC [TRIMETHOPRIM]

Structure (SMILES): CC1(C)S[C@@H]2[C@H](NC(=O)[C@H](N)c3ccc(O)cc3)C(=O)N2[C@H]1C(=O)O [AMOXICILLIN]
Activity (Streptococcus pneumoniae [16]): 55%
MIC50 (Streptococcus pneumoniae [1]): 0.25 µg/mL (≈ 0.684 µM)
MIC90 (Streptococcus pneumoniae [1]): 4 µg/mL (≈ 10.9 µM)
Activity (Streptococcus pneumoniae [17]): 39.1%
Activity (Streptococcus pneumoniae [2]): 55%
Activity (Streptococcus pneumoniae [3]): 39.7%
MIC50 (Streptococcus pneumoniae [18]): 0.25 µg/mL
MIC90 (Streptococcus pneumoniae [18]): 4 µg/mL
